Assay results from patent publication US9296760B2, “Antibacterial compounds” (JANSSEN SCIENCES IRELAND UC, priority 2012, dated 2016).
Converted amounts (≈) assume the structure as drawn.

Columns and labels:
S. aureus = experiment: Antibacterial susceptibility testing, IC90 determination with 10% human serum; type: cell-based, Staphylococcus aureus; settings: Staphylococcus aureus, S. aureus with human serum at final concentration of 10%; read-out: STA + 10% HS (361.169) IC90
Protocol: (§1) Antibacterial Susceptibility Testing: IC90 Determination MIC assays were performed by the broth microdilution method in a 96-well format (flat-bottom microtitre plates) with a final volume of 0.1 ml Mueller Hinton broth containing two-fold serial dilutions of compounds and inoculated with 5×10^5 CFU/ml of bacteria (standard inoculum size according to CLSI guidelines). Inhibitors are typically varied over the range of 63 to 0.49 μM. The final DMSO concentration in the assay was 1.25% (maximum tolerable DMSO concentration=6%). In the assays where the effect of human serum on the activity of the compounds against S. aureus was tested, human serum was added at a final concentration of 10%. The plates were incubated at 35° C. for 16-20 hours. At the end of incubation the bacterial growth was quantified fluorometrically. For this, resazurin was added to all wells and the plates were re-incubated. The incubation time is dependent on the type of bacteria. A change in color from blue to pink indicated the growth of bacteria. The fluorescence was read in computer-controlled fluorometer (Fluoroskan Ascent FL, Labsystems) at an excitation wavelength 540 nm and an emission wavelength of 590 nm. The % growth inhibition achieved by the compounds was calculated according to standard methods. The IC90 (expressed in μg/ml) was defined as the 90% inhibitory concentration for bacterial growth. A panel of reference compounds were simultaneously tested for QC approval. The results are depicted in the table(s) below (STA+10% HS).

[1] = system: Staphylococcus aureus ATCC 29213; experiment: Antibacterial susceptibility testing, IC90 determination (broth microdilution, resazurin); type: cell-based; settings: Staphylococcus aureus, ATCC29213, S. aureus ATCC 29213; 90% inhibitory concentration for bacterial growth; read-out: STA (361.159) IC90
Protocol: Y.2 In Vitro Method for Testing Compounds for Antibacterial Activity Against Various Bacterial Strains
Preparation of Bacterial Suspensions for Susceptibility Testing
The following bacteria were used: Staphylococcus aureus ATCC 29213, methicillin-resistant Staphylococcus aureus (MRSA) ATCC 700788 and Escherichia coli ATCC 35218. The bacteria used in this study were grown overnight in flasks containing 100 ml Mueller-Hinton broth (Difco cat. nr. 0757-17) in sterile de-ionized water, with shaking, at 37° C. Stocks were store at −70° C. until use.
Bacteria were incubated on a tryptic soy agar plate containing 5% sheep blood (Becton Dickinson cat. nr. 254053) for 18-24 hours at 35° C. in aerobic conditions (first passage). For the second passage, fresh Mueller-Hinton broth is inoculated with 5-10 colonies and grown overnight at 35° C. until turbidity (reaching log-phase) in aerobic conditions is reached. The bacterial suspension is then adjusted to 0.5 McFarland density and further diluted 1:100 in Mueller Hinton broth medium. This is used as inoculum.
The result(s) are depicted the table below (for STA ATCC 29213).
Antibacterial Susceptibility Testing: IC90 Determination
as §1, with “MIC” for “Antibacterial Susceptibility Testing: IC90 Determination MIC”, “approval.” for “approval. The results are depicted in the table(s) below (STA+10% HS).”

Cytotoxicity MTT assay = type: cell-based, Human; settings: human, HelaM cells, read-out: HELAM (222.125) CC50
Protocol: Cytotoxicity of the compounds was evaluated using the MTT assay. Human HelaM cells grown in 96-well plates were exposed to serial dilutions of the tested compounds (final volume of 0.2 ml) and incubated for 72 hours at 37° C. and 5% CO2 Inhibitors are typically varied over the range of 25 to 0.8 μM. The final DMSO concentration in the assay is 0.5%. MTT (3-(4,5-Dimethylthiazol-2-yl)-2,5-diphenyltetrazolium bromide, a tetrazole) was added and reduced to purple formazan only in living cells. Solubilization of the formazan crystals was achieved by adding 100 μl 2-propanol. Cell viability was determined by measuring the absorbance of the reduced formazan, giving a purple color, at 540 nm and 690 nm. The absorbance measured at 690 nm was automatically subtracted from the absorbance at 540 nm, to eliminate the effects of non-specific absorption. The percent cytotoxicity achieved by the compounds was calculated according to standard methods. Cytotoxicity is reported as CC50, the concentration that causes a 50% reduction in cell viability.
The results are depicted in the table(s) below (HELAM).

[2] = target: T1, S. aureus ATCC 29213 FabI (Staphylococcus aureus, UniProt Q6GI75); experiment: Staphylococcus aureus FabI enzyme inhibition assay; type: biochemical; settings: NADH consumption, 30 minutes, read-out: FabI (300.235) IC50 (converted)
T1 sequence (Q6GI75 1-256): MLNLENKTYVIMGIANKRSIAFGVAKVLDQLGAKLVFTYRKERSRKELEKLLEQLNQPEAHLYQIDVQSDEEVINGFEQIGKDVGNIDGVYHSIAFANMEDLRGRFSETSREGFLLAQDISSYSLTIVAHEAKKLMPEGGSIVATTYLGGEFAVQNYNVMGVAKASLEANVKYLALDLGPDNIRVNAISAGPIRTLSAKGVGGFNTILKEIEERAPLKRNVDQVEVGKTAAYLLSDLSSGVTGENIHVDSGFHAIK
Protocol: Y.1 FabI Enzyme Inhibition: Staphylococcus aureus FabI Enzyme Inhibition Assay
FabI enzyme inhibition assays were carried out in half-area, 384-well microtitre plates. […] The reaction mixtures were incubated for 30 minutes at room temperature and the reaction was stopped by adding 200 mM Tris buffer (pH 9.0) to create a pH-shift. The consumption of NADH was monitored by measuring the change in absorbance at […]. By comparing sample readings to those of negative (absence of compound) and positive (absence of enzyme) controls, the percent inhibition of enzymatic activity of the compounds was determined A best-fit curve is fitted by a minimum of squares method. From this an IC50-value (expressed in μg/ml), resulting in 50% inhibition of enzymatic activity, was obtained.

Row | SMILES | IC90 (S. aureus) [µg/mL] | IC90 [1] [µg/mL] | CC50 at 72 h (Cytotoxicity MTT assay) [µg/mL] | IC50 [2] [µM] | melting point [°C]
1 | O=C(Nc1ccc(/C=C/C(=O)N2CCC=C(c3ccccc3)CC2)cn1)c1ccoc1 [compound 2] | 1.43 | 0.44 (≈ 1.06 µM) | > 10.4 | 1.19 | 156
2 | CC(=O)Nc1ccc(/C=C/C(=O)N2CCC=C(c3ccccc3)CC2)cn1 [compound 6] | 1.9 | 0.69 (≈ 1.91 µM) | > 9.08 | ~0.802 | 152
3 | CC(=O)Nc1ccc(/C=C/C(=O)N2CC=C(c3ccccc3)CCC2)cn1 [compound 12] | 1.9 | 1.3 (≈ 3.6 µM) | > 9.08 | 0.609 | 188
4 | O=C1Nc2ncc(/C=C/C(=O)N3CC=C(c4ccccc4)CCC3)cc2CN2CCSCC12 (stereo not drawn) [compound 51] | 1.6 | 0.67 (≈ 1.45 µM) | 5.35 (≈ 11.6 µM) | 1.11 | 224
5 | O=C1Nc2ncc(/C=C/C(=O)N3CCC=C(c4ccccc4)CC3)cc2CN2CCSCC12 (stereo not drawn) [compound 49] | 1.23 | 0.39 (≈ 0.847 µM) | 4.88 (≈ 10.6 µM) | 1.11 | 224.06
6 | O=C1Nc2ncc(/C=C/C(=O)N3CCC=C(c4ccccc4)CC3)cc2CN2CCNCC12 (stereo not drawn) [compound 52] | 4.75 | 6.56 (≈ 14.8 µM) | > 11.1 | 21.4 | 206
7 | O=C(Nc1ccc(/C=C/C(=O)N2CCC=C(c3ccccc3)CC2)cn1)C1CCOC1 (stereo not drawn) [compound 20] | 11.8 | 6.69 (≈ 16 µM) | 10 (≈ 24 µM) | 0.934 | 152
8 | COc1ccc(F)cc1C1=CCCN(C(=O)/C=C/c2cnc3c(c2)COCC(=O)N3)CC1 [compound 32] | 0.41 | 0.22 (≈ 0.503 µM) | 10.1 (≈ 23.2 µM) | 1.26 | 234
9 | Cc1cc(C(=O)Nc2ccc(/C=C/C(=O)N3CCC=C(c4ccccc4)CC3)cn2)no1 [compound 16] | 6.71 | 3.29 (≈ 7.68 µM) | 7.89 (≈ 18.4 µM) | 1.54 | 169.37
10 | COc1ccc(F)cc1C1=CCCN(C(=O)/C=C/c2cnc3c(c2)CNCC(=O)N3)CC1 [compound 31] | 0.26 | < 0.21 | > 11 | ~0.933 | 192
11 | CN1CC(=O)Nc2ncc(/C=C/C(=O)N3CCC=C(c4cccs4)CC3)cc2C1 [compound 33] | 0.26 | 0.32 (≈ 0.783 µM) | > 10.3 | 1.25 | 125 to 126
12 | CC(=O)N1CCN2Cc3cc(/C=C/C(=O)N4CCC=C(c5ccccc5)CC4)cnc3NC(=O)C2C1 (stereo not drawn) [compound 47] | 0.44 | 0.25 (≈ 0.515 µM) | 17.6 (≈ 36.3 µM) | 0.783 | 208
13 | Cc1occc1C(=O)Nc1ccc(/C=C/C(=O)N2CCC=C(c3ccccc3)CC2)cn1 [compound 8] | 6.7 | 0.84 (≈ 1.96 µM) | 5.64 (≈ 13.2 µM) | 2.13 | 192
14 | O=C(/C=C/c1ccc(NC(=O)C(F)(F)F)nc1)N1CCC=C(c2ccccc2)CC1 [compound 22] | 12.1 | 11.6 (≈ 27.9 µM) | 8.01 (≈ 19.3 µM) | 1.08 | 159
15 | O=C1CNCc2cc(/C=C/C(=O)N3CCC=C(c4ccccc4)CC3)cnc2N1 [compound 34] | 0.38 | 0.37 (≈ 0.952 µM) | > 9.76 | 0.901 | 203.18
16 | O=C1Nc2ncc(/C=C/C(=O)N3CC=C(c4ccccc4)CCC3)cc2CN2CCOCC12 (stereo not drawn) [compound 50] | 1.58 | 0.64 (≈ 1.44 µM) | 22 (≈ 49.5 µM) | 0.697 | 220
17 | O=C1Nc2ncc(/C=C/C(=O)N3CCC=C(c4ccccc4)CC3)cc2CO1 [compound 41] | 0.67 | 0.6 (≈ 1.6 µM) | > 9.43 | 0.986 | 244.33
18 | CC(C)C(=O)Nc1ccc(/C=C/C(=O)N2CCC=C(c3ccccc3)CC2)cn1 [compound 19] | 20.9 | 6.32 (≈ 16.2 µM) | 8.52 (≈ 21.9 µM) | 1.28 | 158
